In ChEMBL document CHEMBL2016578, “Synthesis and anticancer activity of 2-benzylidene indanones through inhibiting tubulin polymerization” (Bioorg Med Chem, 2012):

Assays:
Mus musculus [1] = experiment: Toxicity in Swiss albino mouse assessed as change in serum SGPT activity at 300 mg/kg, po after 7 days (reference value: 9.3 +/- 0.89 U/L ); type: organism-based; parameters: dose 300 mg/kg, route oral; conditions: in vivo, 168 h
Mus musculus [2] = experiment: Toxicity in Swiss albino mouse assessed as body weight change at 50 mg/kg, po after 7 days (reference value: 30.42 +/- 1.25 g ); type: organism-based; parameters: dose 50 mg/kg, route oral; conditions: in vivo, 168 h
Mus musculus [3] = experiment: Toxicity in Swiss albino mouse assessed as change in relative liver weight at 5 to 1000 mg/kg, po after 7 days; type: organism-based; parameters: dose 5-1000 mg/kg, route oral; conditions: in vivo, 168 h
Mus musculus [4] = experiment: Toxicity in Swiss albino mouse assessed as change in serum SGPT activity at 1000 mg/kg, po after 7 days (reference value: 9.3 +/- 0.89 U/L ); type: organism-based; parameters: dose 1000 mg/kg, route oral; conditions: in vivo, 168 h
Mus musculus [5] = experiment: Toxicity in Swiss albino mouse assessed as change in relative brain weight at 5 to 1000 mg/kg, po after 7 days; type: organism-based; parameters: dose 5-1000 mg/kg, route oral; conditions: in vivo, 168 h
Mus musculus [6] = experiment: Toxicity in Swiss albino mouse assessed as body weight change at 5 mg/kg, po after 7 days (reference value: 30.42 +/- 1.25 g ); type: organism-based; parameters: dose 5 mg/kg, route oral; conditions: in vivo, 168 h
Mus musculus [7] = experiment: Toxicity in Swiss albino mouse assessed as serum creatinine level at 1000 mg/kg, po after 7 days (reference value: 0.47 +/- 0.06 mg/dL ); type: organism-based; parameters: dose 1000 mg/kg, route oral; conditions: in vivo, 168 h
Mus musculus [8] = experiment: Toxicity in Swiss albino mouse assessed as hyperactivity at 1000 mg/kg, po after 7 days for 10 mins; type: organism-based; parameters: dose 1000 mg/kg, route oral; conditions: in vivo
Mus musculus [9] = experiment: Toxicity in Swiss albino mouse assessed as change in absolute kidney weight at 5 to 1000 mg/kg, po after 7 days; type: organism-based; parameters: dose 5-1000 mg/kg, route oral; conditions: in vivo, 168 h
Mus musculus [10] = experiment: Toxicity in Swiss albino mouse assessed as change in serum SGPT activity at 5 mg/kg, po after 7 days (reference value: 9.3 +/- 0.89 U/L ); type: organism-based; parameters: dose 5 mg/kg, route oral; conditions: in vivo, 168 h
Mus musculus [11] = experiment: Toxicity in Swiss albino mouse assessed as change in ALKP activity at 50 mg/kg, po after 7 days (reference value: 83.29 +/- 9.77 U/L ); type: organism-based; parameters: dose 50 mg/kg, route oral; conditions: in vivo, 168 h
Mus musculus [12] = experiment: Toxicity in Swiss albino mouse assessed as change in serum hemoglobin level at 1000 mg/kg, po after 7 days (reference value: 13.38 +/- 1 g/dL ); type: organism-based; parameters: dose 1000 mg/kg, route oral; conditions: in vivo, 168 h
Mus musculus [13] = experiment: Toxicity in Swiss albino mouse assessed as change in relative heart weight at 5 to 1000 mg/kg, po after 7 days; type: organism-based; parameters: dose 5-1000 mg/kg, route oral; conditions: in vivo, 168 h
Mus musculus [14] = experiment: Toxicity in Swiss albino mouse assessed as change in relative ovary weight at 5 to 1000 mg/kg, po after 7 days; type: organism-based, Female gonad; parameters: dose 5-1000 mg/kg, route oral; conditions: in vivo, 168 h
Mus musculus [15] = experiment: Toxicity in Swiss albino mouse assessed as change in absolute brain weight at 5 to 1000 mg/kg, po after 7 days; type: organism-based; parameters: dose 5-1000 mg/kg, route oral; conditions: in vivo, 168 h
Mus musculus [16] = experiment: Toxicity in Swiss albino mouse assessed as change in ALKP activity at 5 mg/kg, po after 7 days (reference value: 83.29 +/- 9.77 U/L ); type: organism-based; parameters: dose 5 mg/kg, route oral; conditions: in vivo, 168 h

With `COc1cc(C2/C(=C/c3ccc4c(c3)OCO4)C(=O)c3cc(OC)c(OC)c(OC)c32)cc(OC)c1OC` (stereo unspecified) the Activity (Mus musculus [1]) was 9.16 U/L, the Activity (Mus musculus [2]) was 28.37 g and the Activity (Mus musculus [3]) was “Non-toxic”. For the same compound, the Activity (Mus musculus [4]) was 19.68 U/L, the Activity (Mus musculus [5]) was “Non-toxic” and the Activity (Mus musculus [6]) was 30.38 g. The Activity (Mus musculus [7]) was 0.42 mg/dL, the Activity (Mus musculus [8]) was “Toxic” and the Activity (Mus musculus [9]) was “Non-toxic”. For the same compound, the Activity (Mus musculus [10]) was 6.9 U/L, the Activity (Mus musculus [11]) was 94.24 U/L and the Activity (Mus musculus [12]) was 12.21 g/dL. For the same compound, the Activity (Mus musculus [13]) was “Non-toxic”, the Activity (Mus musculus [14]) was “Non-toxic” and the Activity (Mus musculus [15]) was “Non-toxic”. It also gave an Activity (Mus musculus [16]) of 82.51 U/L.
